Our source for the EC50 values is patent publication US20230122249A1, “1H-PYRAZOLO[4,3-d]PYRIMIDINE COMPOUNDS AS TOLL-LIKE RECEPTOR 7 (TLR7) AGONISTS” (BRISTOL-MYERS SQUIBB COMPANY, priority 2020, published 2023).

Structures are written as SMILES.

One assay has as its target T1, human TLR7 (Homo sapiens, UniProt Q9NYK1).
T1 construct: host or cells: HEK-Blue TLR7 cells (engineered human embryonic kidney cells)
T1 sequence (Q9NYK1 27-1049): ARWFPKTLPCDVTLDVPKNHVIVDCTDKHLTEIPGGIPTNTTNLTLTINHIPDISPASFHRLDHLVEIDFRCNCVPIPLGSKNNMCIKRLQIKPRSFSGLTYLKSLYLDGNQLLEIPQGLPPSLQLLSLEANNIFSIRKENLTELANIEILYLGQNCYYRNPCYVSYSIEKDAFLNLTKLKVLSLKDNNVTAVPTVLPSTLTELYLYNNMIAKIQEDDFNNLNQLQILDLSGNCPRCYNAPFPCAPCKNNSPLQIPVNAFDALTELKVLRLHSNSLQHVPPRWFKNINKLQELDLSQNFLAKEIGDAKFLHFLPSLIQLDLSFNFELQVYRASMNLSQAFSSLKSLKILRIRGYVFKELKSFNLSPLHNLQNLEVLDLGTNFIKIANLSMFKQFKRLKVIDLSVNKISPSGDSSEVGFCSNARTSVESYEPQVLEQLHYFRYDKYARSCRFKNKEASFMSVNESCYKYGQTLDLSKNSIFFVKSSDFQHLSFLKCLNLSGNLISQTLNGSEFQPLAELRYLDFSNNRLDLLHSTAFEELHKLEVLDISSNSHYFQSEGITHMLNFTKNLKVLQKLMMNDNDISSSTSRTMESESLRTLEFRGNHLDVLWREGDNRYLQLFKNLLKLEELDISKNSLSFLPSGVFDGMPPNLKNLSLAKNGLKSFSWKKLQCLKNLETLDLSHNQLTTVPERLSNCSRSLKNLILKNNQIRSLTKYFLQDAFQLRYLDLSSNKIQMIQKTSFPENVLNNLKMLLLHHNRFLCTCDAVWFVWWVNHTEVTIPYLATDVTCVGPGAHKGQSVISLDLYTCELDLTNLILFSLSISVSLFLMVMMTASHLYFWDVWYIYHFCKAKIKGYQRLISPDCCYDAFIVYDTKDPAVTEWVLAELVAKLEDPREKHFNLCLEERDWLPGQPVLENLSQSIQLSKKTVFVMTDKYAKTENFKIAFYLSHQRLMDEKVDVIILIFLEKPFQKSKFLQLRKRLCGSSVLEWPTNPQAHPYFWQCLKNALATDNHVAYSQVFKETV
The experiment in a line: Human TLR7 agonist activity (hTLR7 reporter) assay in HEK-Blue TLR7 cells, SEAP readout. It counts as cell-based. The settings on record: 18 h treatment, average where assay repeated. As to the method: This procedure describes a method for assaying human TLR7 (hTLR7) agonist activity of the compounds disclosed in this specification.
HEK-Blue™ TLR7 cells were added to each well of a 384-well tissue-culture plate (15,000 cells per well) and incubated 16-18 h at 37° C., 5% CO2. Compounds (100 nl) were dispensed into wells containing the HEK-Blue™ TLR cells and the treated cells were incubated at 37° C., 5% CO2. After 18 h treatment ten microliters of freshly-prepared Quanti-Blue™ reagent (Invivogen) was added to each well, incubated for 30 min (37° C., 5% CO2) and SEAP levels measured using an Envision plate reader (OD=620 nm). The half maximal effective concentration values (EC50; compound concentration which induced a response halfway between the assay baseline and maximum) were calculated.
Broadly, the EC50 is the concentration at which the effect is half-maximal. Higher therefore signals a need for much substance. `COc1cc(C(=O)N2CCNCC2)ccc1Cn1ncc2nc(N)nc(NCC3CC4(CC4)C3)c21` [Compound 171] displayed an EC50 of 17 nM.
Molecule `COc1cc(CNC2CCOCC2)ccc1Cn1ncc2nc(N)nc(NCC3CC4(C3)CC4(F)F)c21` (centres unmarked) [Compound 137] registered a concentration giving a half-maximal response (EC50) of 88.1 nM.
Still for that read-out and setting: the result for `CCC[C@@H](CCO)Nc1nc(N)nc2c(F)nn(Cc3ccc(CN4CC5(CNC5)C4)cc3OC)c12` [Compound 245] reads 40.6 nM; that for `CCC[C@@H](CCO)Nc1nc(N)nc2c(C)nn(Cc3ccc(CN4CC5(CNC5)C4)cc3OC)c12` [Compound 246], 180 nM.
With `COc1cc(C(=O)N2CCN(CCO)CC2)ccc1Cn1ncc2nc(N)nc(NCC3CC4(CC4)C3)c21` [Compound 184], the midpoint of the response, the EC50, lay at 67.5 nM.
As for `COc1cc(C(=O)N2CC3(CC(O)C3)C2)ccc1Cn1ncc2nc(N)nc(NCC3CC4(C3)CC4(F)F)c21` (centres unmarked) [Compound 160], the EC50 turned out to be 2580 nM.
The molecule `COc1cc(CN2CC3(CC(OC)C3)C2)ccc1Cn1ncc2nc(N)nc(NCC3CC4(C3)CC4(F)F)c21` (centres unmarked) [Compound 144] displayed a concentration for a half-maximal effect (EC50) of 69.5 nM.
On to `CCCCNc1nc(N)nc2cnn(Cc3ccc(CN4CC5(C4)CN(C(=O)C(C)(C)C)C5)cc3OC)c12` [Compound 105], for which the response was half-maximal at 60 nM (EC50).
In turn, `COc1cc(CN2C[C@H]3CNC[C@H]3C2)ccc1Cn1ncc2nc(N)nc(NCC3CC4(C3)CC4(F)F)c21` (some centres unmarked) [Compound 140] came in with a 50% effective concentration (EC50) of 435 nM.
Consider `COc1cc(C(=O)N2CCOCC2)ccc1Cn1ncc2nc(N)nc(NCC3CC4(C3)CC4(F)F)c21` (centres unmarked) [Compound 161], for which the EC50 worked out at 354 nM.
In turn, `COc1cc(CN2CC3(C2)CN(C(C)=O)C3)ccc1Cn1ncc2nc(N)nc(NCC3CC4(C3)CC4(F)F)c21` (centres unmarked) [Compound 122] registered an EC50 of 241 nM.
For the molecule `COc1cc(C(=O)NC2CCN(C)CC2)ccc1Cn1ncc2nc(N)nc(NCC3CC4(C3)CC4(F)F)c21` (centres unmarked) [Compound 164], the EC50 worked out at 638 nM.
Regarding `CCCCNc1nc(N)nc2cnn(Cc3ccc(CN4CC5(C4)CC(F)(F)C5)cc3OC)c12` [Compound 102], the EC50 stood at 95.4 nM.
Still for that read-out and setting: the result for `CCCCNc1nc(N)nc2cnn(Cc3ccc(CN4CC5(C4)CN(C(=O)C4CCC4)C5)cc3OC)c12` [Compound 110] reads 31.9 nM; that for `COc1cc(CN2CC3(CN(C)C3)C2)ccc1Cn1ncc2nc(N)nc(NCC3CC4(C3)CC4F)c21` (centres unmarked) [Compound 120], 262 nM; that for `COc1cc(CN2C[C@H]3C[C@@H]2CN3C)ccc1Cn1ncc2nc(N)nc(NCC3CC4(C3)CC4(F)F)c21` (some centres unmarked) [Compound 142], 49.7 nM.
Molecule `COc1cc(CNC2CCC2)ccc1Cn1ncc2nc(N)nc(NCC3CC4(CC4)C3)c21` [Compound 129] came in with an EC50 of 24.4 nM.
For the molecule `COc1cc(CN2CC3(CCOCC3)C2)ccc1Cn1ncc2nc(N)nc(NCC3CC4(CC4)C3)c21` [Compound 135], the EC50 was 69.8 nM.
The molecule `COc1cc(CN2CC3(C2)CN(C(=O)C2(C)CC2)C3)ccc1Cn1ncc2nc(N)nc(NCC3CC4(C3)CC4F)c21` (centres unmarked) [Compound 128] displayed an EC50 of 349 nM.
`COc1cc(CN2C[C@H]3C[C@@H]2CN3C)ccc1Cn1ncc2nc(N)nc(NCC3CC4(C3)CC4F)c21` (some centres unmarked) [Compound 125] came in with an EC50 of 59.2 nM.
For `COc1cc(CN2C[C@H]3CN(C)C[C@H]3C2)ccc1Cn1ncc2nc(N)nc(NCC3CC4(C3)CC4F)c21` (some centres unmarked) [Compound 118], the EC50 is 137 nM.
Take `COc1cc(CN2CC3(CC(O)C3)C2)ccc1Cn1ncc2nc(N)nc(NCC3CC4(C3)CC4(F)F)c21` (centres unmarked) [Compound 143]: it took 103 nM to reach a half-maximal effect (EC50).
Regarding `COc1cc(C(=O)N2CCN(C)CC2)ccc1Cn1ncc2nc(N)nc(NCC3CC4(C3)CC4(F)F)c21` (centres unmarked) [Compound 165], the EC50 turned out to be 147 nM.
On the same count and under the same terms, the result for `COc1cc(CNC2CCC2)ccc1Cn1ncc2nc(N)nc(NCC3CC4(C3)CC4F)c21` (mixture of isomers) [Compound 115] reads 84.1 nM.
Take `COc1cc(CN2C[C@H]3C[C@@H]2CN3C)ccc1Cn1ncc2nc(N)nc(NCC3CC4(CC4)C3)c21` [Compound 134]: the 50% effective concentration (EC50) was determined as 16.6 nM.
Turning to `COc1cc(CNC2CCC2)ccc1Cn1ncc2nc(N)nc(NCC3CC4(C3)CC4(F)F)c21` (mixture of isomers) [Compound 136], the EC50 was 68.1 nM.
In turn, `COc1cc(CN2CC3(CN(C)C3)C2)ccc1Cn1ncc2nc(N)nc(NCC3CC4(C3)CC4(F)F)c21` (centres unmarked) [Compound 138] displayed a concentration for a half-maximal effect (EC50) of 244 nM.
`COc1cc(CN2CC3(C2)CN(C(C)C2(C)CC2)C3)ccc1Cn1ncc2nc(N)nc(NCC3CC4(C3)CC4(F)F)c21` (centres unmarked) [Compound 123]: the EC50 came to 320 nM.
`COc1cc(CN2C[C@H]3CNC[C@H]3C2)ccc1Cn1ncc2nc(N)nc(NCC3CC4(C3)CC4F)c21` (some centres unmarked) [Compound 126] gave an EC50 of 244 nM.
Molecule `COc1cc(CNC2CCOCC2)ccc1Cn1ncc2nc(N)nc(NCC3CC4(CC4)C3)c21` [Compound 130] yielded a concentration giving a half-maximal response (EC50) of 39.7 nM.
For the molecule `COc1cc(CN2CC3(C2)CN(C(C)=O)C3)ccc1Cn1ncc2nc(N)nc(NCC3CC34CC4)c21` (centres unmarked) [Compound 109], the half-maximal effective concentration (EC50) was 1230 nM.
`COc1cc(CNC2CCOCC2)ccc1Cn1ncc2nc(N)nc(NCC3CC4(C3)CC4F)c21` (centres unmarked) [Compound 116] gave an EC50 of 163 nM.
In turn, `CCCCNc1nc(N)nc2cnn(Cc3ccc(CN4CC5(C4)CN(C(=O)CC(C)C)C5)cc3OC)c12` [Compound 104] showed an EC50 of 138 nM.
Take `COc1cc(C(=O)N(C)C)ccc1Cn1ncc2nc(N)nc(NCC3CC4(C3)CC4(F)F)c21` (centres unmarked) [Compound 162]: the midpoint of the response, the EC50, lay at 497 nM.
The molecule `COc1cc(CN2C[C@@H]3C[C@H]2CN3)ccc1Cn1ncc2nc(N)nc(NCC3CC4(C3)CC4F)c21` (some centres unmarked) [Compound 124] came in with an EC50 of 193 nM.
`CCC[C@@H](CCO)Nc1nc(N)nc2cnn(Cc3ccc(CNC4CCOCC45CCC5)cc3OC)c12` (some centres unmarked) [Compound 114] registered a half-maximal effective concentration (EC50) of 3.4 nM.

For a further assay, the system named is CD69 in human whole blood. The experiment in a line: Induction of CD69 in human whole blood (hWB). The class given is cell-based. The settings on record: heparinized human whole blood, 17 h, CD69 surface staining; 100% set to 1 uM resiquimod; average where assay repeated. On the procedure: The induction of Type I interferon (IFN) MX-1 genes and the B-cell activation marker CD69 are downstream events that occur upon activation of the TLR7 pathway. The following is a human whole blood assay that measures their induction in response to a TLR7 agonist.
Heparinized human whole blood was harvested from human subjects and treated with test TLR7 agonist compounds at 1 mM. The blood was diluted with RPMI 1640 media and Echo was used to predot 10 nL per well giving a final concentration of 1 uM (10 nL in 10 uL of blood). After mixing on a shaker for 30 sec, the plates were covered and placed in a 37° C. chamber for o/n=17 hrs. Fixing/lysis buffer was prepared (5×->1×in H2O, warm at 37° C.; Cat# BD 558049) and kept the perm buffer (on ice) for later use.
For surface markers staining (CD69): prepared surface Abs: 0.045 ul hCD14-FITC (ThermoFisher Cat # MHCD1401)+0.6 ul hCD19-ef450 (ThermoFisher Cat #48-0198-42)+1.5 ul hCD69-PE (cat# BD555531)+0.855 ul FACS buffer. Added 3 ul/well, spin1000 rpm for 1 min and mixed on shaker for 30 sec, put on ice for 30 mins. Stop stimulation after 30 minutes with 70 uL of prewarmed 1×fix/lysis buffer and use Feliex mate to resuspend (15 times, change tips for each plate) and incubate at 37° C. for 10 minutes.
Centrifuge at 2000 rpm for 5 minutes aspirate with HCS plate washer, mix on shaker for 30 sec and then wash with 70 uL in dPBS and pelleted 2 xs (2000 rpm for 5 min) and 50 ul wash in FACS buffer pelleted 1 xs(2000 rpm for 5 min). Mix on shaker for 30 sec. For Intracellular markers staining (MX-1): Add 50 ul of BD Perm buffer III and mix on shaker for 30 sec. Incubate on ice for 30 minutes (in the dark). Wash with 50 uL of FACS buffer 2×(spin @2300 rpm×5 min after perm) followed by mixing on shaker for 30 sec. Resuspended in 20 ul of FACS buffer containing MX1 antibody ( )(4812)-Alexa 647: Novus Biologicals #NBP2-43704AF647) 20 ul FACS bf+0.8 ul hlgG+0.04 ul MX-1. Spin 1000 rpm for 1 min, mix on shaker for 30 se and the samples were incubated at RT in the dark for 45 minutes followed by washing 2×FACS buffer (spin @2300 rpm×5 min after perm). Resuspend 20 ul (35 uL total per well) of FACS buffer and cover with foil and place in 4° C. to read the following day. Plates were read on iQuePlus. The results were loaded into toolset and […] curves are generated in curve master. The y-axis 100% is set to 1 uM of resiquimod.
Regarding `COc1cc(C(=O)N2CCNCC2)ccc1Cn1ncc2nc(N)nc(NCC3CC4(CC4)C3)c21` [Compound 171], the EC50 worked out at 2.8 nM.
In turn, `CCC[C@@H](CCO)Nc1nc(N)nc2c(F)nn(Cc3ccc(CN4CC5(CNC5)C4)cc3OC)c12` [Compound 245] had an EC50 of 1.2 nM.
On to `CCC[C@@H](CCO)Nc1nc(N)nc2c(C)nn(Cc3ccc(CN4CC5(CNC5)C4)cc3OC)c12` [Compound 246], for which a half-maximal effect (EC50) was put at 11.1 nM.
Regarding `COc1cc(C(=O)N2CCN(CCO)CC2)ccc1Cn1ncc2nc(N)nc(NCC3CC4(CC4)C3)c21` [Compound 184], the midpoint of the response, the EC50, lay at 110 nM.
Take `COc1cc(CN2CC3(C2)CN(C(C)=O)C3)ccc1Cn1ncc2nc(N)nc(NCc3cc(C)on3)c21` [Compound 212]: a half-maximal response (EC50) required 61.9 nM.
